Experimental data: patent US8853230B2, “Inhibitors of JAK” (Portola Pharmaceuticals, Inc., priority 2009, dated 2014)
pIC50: −log10 of the molar value.

Assays:
Type in all cases: biochemical
JAK1 = target: T1, JAK1 (Homo sapiens, UniProt P23458); assay: Z'-LYTE kinase assay, JAK1 tyrosine phosphorylation activity; conditions: read-out: JAK 1 IC50
T1 construct: 5 μl of catalytic domain recombinant Kinase enzyme+Tyr peptide substrate (Invitrogen, Calif.); purchased Invitrogen
Method: (§1) JAK and TYK2 tyrosine phosphorylation activity is measured using the Z′-LYTE™ Technology developed by Invitrogen Corporation (Carlsbad, Calif.). For JAK1, JAK2 and JAK3 the Z′-LYTE™ Kinase Assay Kit-Tyr6 Peptide (part number PV4122) was used. For TYK2 the Z′-LYTE™ Kinase Assay Kit-Tyr6 Peptide (part number PV3192) was used. The Z′-LYTE™ biochemical assay employs a fluorescence resonance energy transfer (FRET) coupled-enzyme format and is based on the differential sensitivity of phosphorylated and non-phosphorylated peptides to proteolitic cleavage. The assay uses a synthetic peptide substrate that is labelled with a donor fluorophore (coumarin) and an acceptor fluorophore (fluorescein) that make up a FRET pair. In the primary reaction (the Kinase Reaction), the kinase transfers the γ-phosphate of ATP to a single tyrosine residue on the substrate, while the presence of a kinase inhibitor in the primary reaction suppresses phosphorylation. In the secondary reaction (the Development Reaction), a site-specific protease (the Development Reagent) is added. The development buffer quenches the Kinase Reaction, while the protease recognizes and cleaves non-phosphorylated Z′-LYTE™ peptide substrate. Cleavage disrupts FRET between the donor and acceptor fluorophores on the non-phosphoryleted substrate, while uncleaved, phosphorylated substrate maintains FRET.
(§2) To test the ability of candidate molecules to inhibit JAK tyrosine phosphorylation activity, molecules are reconstituted in 100% DMSO and serially diluted 1:10 in polypropylene v-bottom microtiter plates. The candidate molecules are then diluted 1:25 into kinase buffer and 2.5 μl transferred into duplicate wells of a 384 well low volume black microtiter assay plate (Corning, USA). The final DMSO concentration in the assay is 1%. The kinase reaction contains 2.5 μl of a candidate molecule, 5 μl of catalytic domain recombinant Kinase enzyme+Tyr peptide substrate (Invitrogen, Calif.) and 2.5 μl ATP (Invitrogen, Calif.). The kinase reaction is allowed to procede for 1 hour at room temperature. The protease reaction is initiated by the addition of 5 μl Development Reagent (Invitrogen, Calif.). After 1 hour incubation at room temperature the fluorescence is measured using a FlexStation plate reader (Molecular Devices, Sunnyvale, Calif.). The reader settings used are as follows: Fluorescence mode, endpoint, top read, excitation 400 nm, emission 445 nm and 520 nm, Auto Cutoff 435 nm and 515 nm, PMT sensitivity high, 6 reads per well. Inhibition of JAK activity is calculated as the percent phosphorylation of substrate in the presence of inhibitor compared to the percent phosphorylation of substrate in the absence of inhibitor. IC50's were derived using Xlfit 4.3 (IDBS, UK), 4 parameter logistic model 205: Y=(A+((B−A)/(1+((C/x)^D)))).

JAK2 = target: T2, JAK2 (Homo sapiens, UniProt O60674); assay: Z'-LYTE kinase assay, JAK2 tyrosine phosphorylation activity
T2 construct: 5 μl of catalytic domain recombinant Kinase enzyme+Tyr peptide substrate (Invitrogen, Calif.); purchased Invitrogen
T2 sequence (O60674 849-1124 limits assumed): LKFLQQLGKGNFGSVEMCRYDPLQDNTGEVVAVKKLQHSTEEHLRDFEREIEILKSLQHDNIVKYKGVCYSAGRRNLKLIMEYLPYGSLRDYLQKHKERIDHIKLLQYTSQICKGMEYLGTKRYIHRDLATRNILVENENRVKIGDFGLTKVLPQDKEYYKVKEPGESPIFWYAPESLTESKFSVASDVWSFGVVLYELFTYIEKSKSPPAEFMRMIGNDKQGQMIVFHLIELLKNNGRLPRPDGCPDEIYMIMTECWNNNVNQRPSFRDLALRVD
Method: as §1, §2

JAK3 = target: T3, JAK3 (Homo sapiens, UniProt P52333); assay: Z'-LYTE kinase assay, JAK3 tyrosine phosphorylation activity
T3 construct: 5 μl of catalytic domain recombinant Kinase enzyme+Tyr peptide substrate (Invitrogen, Calif.); purchased Invitrogen
T3 sequence (P52333 822-1111 limits assumed): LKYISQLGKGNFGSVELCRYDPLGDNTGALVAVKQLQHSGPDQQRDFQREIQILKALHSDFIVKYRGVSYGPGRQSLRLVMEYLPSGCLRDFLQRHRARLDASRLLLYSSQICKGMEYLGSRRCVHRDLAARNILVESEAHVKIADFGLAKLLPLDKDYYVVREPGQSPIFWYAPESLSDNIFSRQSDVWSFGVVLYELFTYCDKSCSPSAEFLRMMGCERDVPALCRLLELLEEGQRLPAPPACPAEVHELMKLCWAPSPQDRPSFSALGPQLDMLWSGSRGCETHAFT
Method: as §1, §2

TYK2 = target: T4, TYK2 (Homo sapiens, UniProt P29597); assay: Z'-LYTE kinase assay, TYK2 tyrosine phosphorylation activity
T4 construct: 5 μl of catalytic domain recombinant Kinase enzyme+Tyr peptide substrate (Invitrogen, Calif.); purchased Invitrogen
T4 sequence (P29597 897-1176 limits assumed): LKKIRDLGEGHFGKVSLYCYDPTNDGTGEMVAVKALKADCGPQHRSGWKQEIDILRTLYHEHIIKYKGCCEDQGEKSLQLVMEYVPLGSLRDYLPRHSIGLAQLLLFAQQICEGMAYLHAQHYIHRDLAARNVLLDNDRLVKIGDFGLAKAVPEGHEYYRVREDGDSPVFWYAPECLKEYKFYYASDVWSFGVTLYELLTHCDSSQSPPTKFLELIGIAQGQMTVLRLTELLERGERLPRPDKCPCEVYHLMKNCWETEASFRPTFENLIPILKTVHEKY
Method: as §1, §2

T1 sequence (P23458 875-1153 limits assumed): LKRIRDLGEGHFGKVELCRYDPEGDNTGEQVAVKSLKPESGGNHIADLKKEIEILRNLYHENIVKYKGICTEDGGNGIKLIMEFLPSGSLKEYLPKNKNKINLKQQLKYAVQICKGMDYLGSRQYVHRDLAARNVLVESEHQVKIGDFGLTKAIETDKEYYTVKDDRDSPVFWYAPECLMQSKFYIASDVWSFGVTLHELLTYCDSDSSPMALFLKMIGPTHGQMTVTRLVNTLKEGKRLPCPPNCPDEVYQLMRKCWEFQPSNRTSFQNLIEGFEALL

Compound | pIC50 (JAK1) | pIC50 (JAK2) | pIC50 (JAK3) | pIC50 (TYK2)
CC(=O)Nc1cc(Nc2ncc(C(N)=O)c(NCc3ccccc3)n2)ccc1Cl [Example 2, 2-(3-acetamido-4-chlorophenylamino)-4-(benzylamino)pyrimidine-5-carboxamide] | 7.00 to 8.00 | 7.00 to 8.00 | 8.00 to 9.00 | 7.00 to 8.00
CC(=O)Nc1cccc(Nc2ncc(C(N)=O)c(N[C@H](C)C(N)=O)n2)c1 [Example 91, (R)-2-(3-acetamidophenylamino)-4-(1-amino-1-oxopropan-2-ylamino)pyrimidine-5-carboxamide] | 7.00 to 8.00 | 7.00 to 8.00 | 7.00 to 8.00 | 7.00 to 8.00
CC(=O)Nc1cccc(Nc2ncc(C(N)=O)c(NC3Cc4ccccc4C3)n2)c1 [Example 92, 2-(3-acetamidophenylamino)-4-(2,3-dihydro-1H-inden-2-ylamino)pyrimidine-5-carboxamide] | 7.00 to 8.00 | 7.00 to 8.00 | 7.00 to 8.00 | 7.00 to 8.00
CC(=O)Nc1cccc(Nc2ncc(C(N)=O)c(NCc3cccc(F)c3)n2)c1 [Example 94, 2-(3-acetamidophenylamino)-4-(3-fluorobenzylamino)pyrimidine-5-carboxamide] | 7.00 to 8.00 | 7.00 to 8.00 | 8.00 to 9.00 | 7.00 to 8.00
CC(=O)Nc1cccc(Nc2ncc(C(N)=O)c(NCc3cccc(F)c3F)n2)c1 [Example 95, 2-(3-acetamidophenylamino)-4-(2,3-difluorobenzylamino)pyrimidine-5-carboxamide] | 7.00 to 8.00 | 7.00 to 8.00 | 8.00 to 9.00 | 7.00 to 8.00
CC(=O)Nc1cccc(Nc2ncc(C(N)=O)c(N[C@H]3CCc4ccccc43)n2)c1 [Example 96, (S)-2-(3-acetamidophenylamino)-4-(2,3-dihydro-1H-inden-1-ylamino)pyrimidine-5-carboxamide] | 7.00 to 8.00 | 7.00 to 8.00 | 7.00 to 8.00 | 7.00 to 8.00
CC(=O)Nc1cccc(Nc2ncc(C(N)=O)c(N[C@@H]3CCc4ccccc43)n2)c1 [Example 97, (R)-2-(3-acetamidophenylamino)-4-(2,3-dihydro-1H-inden-1-ylamino)pyrimidine-5-carboxamide] | 7.00 to 8.00 | 7.00 to 8.00 | 8.00 to 9.00 | 8.00 to 9.00
CC(=O)Nc1cccc(Nc2ncc(C(N)=O)c(N[C@@H](CO)c3ccccc3)n2)c1 [Example 98, (R)-2-(3-acetamidophenylamino)-4-(2-hydroxy-1-phenylethylamino)pyrimidine-5-carboxamide] | 6.00 to 7.00 | 6.00 to 7.00 | 7.00 to 8.00 | 6.00 to 7.00
CC(=O)Nc1cccc(Nc2ncc(C(N)=O)c(NCc3ccc4c(c3)OCO4)n2)c1 [Example 99, 2-(3-acetamidophenylamino)-4-(benzo[d][1,3]dioxol-5-ylmethylamino)pyrimidine-5-carboxamide] | 6.00 to 7.00 | 7.00 to 8.00 | 7.00 to 8.00 | 7.00 to 8.00
CC(=O)Nc1cccc(Nc2ncc(C(N)=O)c(NCc3cccc(Cl)c3)n2)c1 [Example 101, 2-(3-acetamidophenylamino)-4-(3-chlorobenzylamino)pyrimidine-5-carboxamide] | 7.00 to 8.00 | 8.00 to 9.00 | 8.00 to 9.00 | 7.00 to 8.00
CC(=O)Nc1cccc(Nc2ncc(C(N)=O)c(NCc3cc(F)ccc3F)n2)c1 [Example 102, 2-(3-acetamidophenylamino)-4-(2,5-difluorobenzylamino)pyrimidine-5-carboxamide] | 6.00 to 7.00 | 7.00 to 8.00 | 8.00 to 9.00 | 7.00 to 8.00
CC(=O)Nc1cccc(Nc2ncc(C(N)=O)c(NCc3ccc(F)cc3)n2)c1 [Example 103, 2-(3-acetamidophenylamino)-4-(4-fluorobenzylamino)pyrimidine-5-carboxamide] | 6.00 to 7.00 | 7.00 to 8.00 | 7.00 to 8.00 | 7.00 to 8.00
COCC(=O)Nc1cccc(Nc2ncc(C(N)=O)c(NCc3ccc(F)cc3)n2)c1 [Example 104, 4-(4-fluorobenzylamino)-2-(3-(2-methoxyacetamido)phenylamino)pyrimidine-5-carboxamide] | 6.00 to 7.00 | 7.00 to 8.00 | 7.00 to 8.00 | 7.00 to 8.00
C[C@@H](Nc1nc(Nc2cccc(NC(=O)N3CCCC3)c2)ncc1C(N)=O)c1ccccc1 [Example 105, (R)-4-(1-phenylethylamino)-2-(3-(pyrrolidine-1-carboxamido)phenylamino)pyrimidine-5-carboxamide] | 6.00 to 7.00 | 7.00 to 8.00 | 8.00 to 9.00 | 7.00 to 8.00
NC(=O)c1cnc(Nc2ccc(Cl)c(NC(=O)NC3CCC3)c2)nc1NCc1ccccc1 [Example 107, 4-(benzylamino)-2-(4-chloro-3-(3-cyclobutylureido)phenylamino)pyrimidine-5-carboxamide] | < 6.00 | < 6.00 | 6.00 to 7.00 | 6.00 to 7.00
COCC(=O)Nc1cc(Nc2ncc(C(N)=O)c(N[C@H](C)c3ccccc3)n2)ccc1Cl [Example 109, (R)-2-(4-chloro-3-(2-methoxyacetamido)phenylamino)-4-(1-phenylethylamino)pyrimidine-5-carboxamide] | 6.00 to 7.00 | 6.00 to 7.00 | 7.00 to 8.00 | 6.00 to 7.00
C[C@@H](Nc1nc(Nc2ccc(Cl)c(NC(=O)NC3CCC3)c2)ncc1C(N)=O)c1ccccc1 [Example 111, (R)-2-(4-chloro-3-(3-cyclobutylureido)phenylamino)-4-(1-phenylethylamino)pyrimidine-5-carboxamide] | < 6.00 | < 6.00 | 6.00 to 7.00 | 6.00 to 7.00
CNC(=O)c1cnc(Nc2cccc(NC(C)=O)c2)nc1NCc1ccccc1 [Example 112, 2-(3-acetamidophenylamino)-4-(benzylamino)-N-methylpyrimidine-5-carboxamide] | < 6.00 | < 6.00 | < 6.00 | < 6.00
NC(=O)c1cnc(Nc2cccc(NC(=O)N3CCC[C@@H](O)C3)c2)nc1NCc1ccccc1 [Example 212, (R)-4-(benzylamino)-2-(3-(3-hydroxypiperidine-1-carboxamido)phenylamino)pyrimidine-5-carboxamide] | – | 6.00 to 7.00 | 6.00 to 7.00 | 6.00 to 7.00
NC(=O)c1cnc(Nc2cccc(NC(=O)N3CCOCC3)c2)cc1NCc1cccnc1 [Example 319, N-(3-(5-carbamoyl-4-(pyridin-3-ylmethylamino)pyridin-2-ylamino)phenyl)morpholine-4-carboxamide] | < 6.00 | 6.00 to 7.00 | 7.00 to 8.00 | –
NC(=O)c1cnc(Nc2cccc(NC(=O)N3CCCC3)c2)cc1NCc1cccnc1 [Example 320, 4-(pyridin-3-ylmethylamino)-6-(3-(pyrrolidine-1-carboxamido)phenylamino)nicotinamide] | < 6.00 | 6.00 to 7.00 | 7.00 to 8.00 | –
CC(=O)Nc1cccc(Nc2cc(NCc3cccnc3)c(C(N)=O)cn2)c1 [Example 321, 6-(3-acetamidophenylamino)-4-(pyridin-3-ylmethylamino)nicotinamide] | 6.00 to 7.00 | 6.00 to 7.00 | 7.00 to 8.00 | –
CNC(=O)c1cnc(Nc2cccc(NC(C)=O)c2)cc1NCc1ccccc1 [Example 339, 6-(3-acetamidophenylamino)-4-(benzylamino)-N-methylnicotinamide] | < 6.00 | < 6.00 | < 6.00 | –
NC(=O)c1cnc(Nc2cccc(NC(=O)N3CCCC3)c2)cc1NCc1cc(F)cc(F)c1 [Example 341, 4-(3,5-difluorobenzylamino)-6-(3-(pyrrolidine-1-carboxamido)phenylamino)nicotinamide] | < 6.00 | 6.00 to 7.00 | 8.00 to 9.00 | –
